# Experiments:
# replicating Mtb H37Rv = format: cell-based; details: Mycobacterium tuberculosis, read-out: MIC in MABA
# [1] = tested on: M. tuberculosis H37Rv::pCHERRY3; format: cell-based, Mycobacterium tuberculosis; details: OD and fluorescence readouts, 5 d, listed as Ambien, 1
compound,measurement,setting,value
"Cc1ccc(-c2nc3ccc(C)cn3c2CC(=O)N(C)C)cc1 [Compound 1, N,N-dimethyl-2-(6-methyl-2-p-tolyl-imidazo[1,2-a]pyridin-3-yl)acetamide]",MIC,replicating Mtb H37Rv,49 to 53 µM
same,MIC Mtb H37Rv 7H9-Tw-OADC,[1],10 µM

# From paper PMC4426345 (ACS Infectious Diseases, 2014)
